Measurements as given in US20210228560A1 (Centogene IP GmbH, priority 2011, published 2021).
Numbering of substitutions follows the chain as printed. Several values for one entry are separate records, joined by “and”; a condition that tells them apart may be missing. Equal entries are not always repeated. Where two headings read alike, the source gives them in different places.

Assays:
hexosaminidase A = target: T1, hexosaminidase A (Homo sapiens, UniProt P06865+P07686); conditions: cited from earlier work
T1 sequence (P06865 89-529): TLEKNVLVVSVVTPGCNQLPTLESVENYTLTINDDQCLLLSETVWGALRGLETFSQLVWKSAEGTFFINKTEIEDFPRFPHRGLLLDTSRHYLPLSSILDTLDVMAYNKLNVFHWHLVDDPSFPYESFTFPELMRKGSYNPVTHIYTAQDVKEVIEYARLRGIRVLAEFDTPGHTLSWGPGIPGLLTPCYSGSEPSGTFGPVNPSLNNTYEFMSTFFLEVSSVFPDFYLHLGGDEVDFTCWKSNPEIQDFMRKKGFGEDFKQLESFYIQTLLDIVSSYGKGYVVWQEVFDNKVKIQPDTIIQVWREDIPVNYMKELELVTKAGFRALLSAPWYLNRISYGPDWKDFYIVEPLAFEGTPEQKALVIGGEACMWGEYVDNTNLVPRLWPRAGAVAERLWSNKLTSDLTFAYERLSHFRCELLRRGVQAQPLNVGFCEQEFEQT
T1 sequence (P07686 122-556): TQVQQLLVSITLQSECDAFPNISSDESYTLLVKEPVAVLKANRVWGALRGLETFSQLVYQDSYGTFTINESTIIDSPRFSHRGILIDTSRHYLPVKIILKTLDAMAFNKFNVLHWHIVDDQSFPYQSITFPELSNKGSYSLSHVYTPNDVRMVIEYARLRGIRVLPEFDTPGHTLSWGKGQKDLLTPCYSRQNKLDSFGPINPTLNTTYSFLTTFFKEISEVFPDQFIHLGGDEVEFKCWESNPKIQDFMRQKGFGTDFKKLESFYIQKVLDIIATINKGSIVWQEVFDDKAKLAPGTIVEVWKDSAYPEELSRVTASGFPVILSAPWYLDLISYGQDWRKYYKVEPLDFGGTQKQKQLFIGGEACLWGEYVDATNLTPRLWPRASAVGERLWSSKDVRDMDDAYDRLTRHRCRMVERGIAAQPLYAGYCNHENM

[1] = Plasma concentration and absorption (literature); format: in vivo, human; conditions: 32 mg tablet; estimate
[2] = cited from earlier work
[3] = target: acid α-glucosidase mutants (Homo sapiens, UniProt P10253, Y455F); format: cell-based; conditions: 20 μM DNJ + 40 μM compound; FIG. 11
Description: (§1) A bacterial clone containing the full length cDNA of […] (IRATp970C0971D, aligned to accession no. NM_000152.3, GeneBank) was received form ImaGenes GmbH, Berlin, Germany. Amplification was performed with the primers 5′-TAGGAGCTGTCCAGGCCATC-3′ (SEQ ID NO:3) and 5′-GAGAGACTAACACACTCCGC-3′ (SEQ ID NO:4). The PCR was carried out using iProof DNA Polymerase (BioRad). The cDNA was subcloned into pCRII TA TOPO vector (Invitrogen). Prior to ligation, the cDNA insert was incubated with Taq polymerase (Qiagen) to add a poly (A) overhang at the 3′-end for TA-cloning. For expression, the GAA cDNA was ligated into target vector pcDNA3.1/V5-His6 (Invitrogen) using sticky end ligation utilizing unique restriction sites (HindIII, XhoI) offered by both vectors multiple cloning sites.
(§2) Sample preparation was carried out analogously to the α-galactosidase A recordings. As substrate, a 1.3 mg 4-Methylumbelliferyl-α-D-Glukopyranoside/ml solution (in sodium acetate buffer, pH 4.0) was used and 5 μg sample/reaction were added. The reaction was incubated for 60 minutes at 37° C. and stopped with 1M Glycine-NaOH, pH 10.5.

[4] = system: GLA mutants (alpha-galactosidase A); conditions: for enzyme activity of GLA mutants, compound in combination with DGJ: 40 μM compound + 20 μM DGJ, compared to DGJ alone, DGJ-responsive mutants, FIG. 3, FIG. 6
GLA[A156V] = target: T2, GLA[A156V] (Homo sapiens, UniProt P06280, A156V); format: cell-based; conditions: for mutant enzyme activity in combination with DGJ: concentration of SF-54B and SF-55C 10 μM and 40 μM, respectively; for mutant enzyme activity in combination with DGJ, concentration series: increasing concentrations of compound with DGJ, FIG. 10
T2 sequence (P06280 32-429 A156V): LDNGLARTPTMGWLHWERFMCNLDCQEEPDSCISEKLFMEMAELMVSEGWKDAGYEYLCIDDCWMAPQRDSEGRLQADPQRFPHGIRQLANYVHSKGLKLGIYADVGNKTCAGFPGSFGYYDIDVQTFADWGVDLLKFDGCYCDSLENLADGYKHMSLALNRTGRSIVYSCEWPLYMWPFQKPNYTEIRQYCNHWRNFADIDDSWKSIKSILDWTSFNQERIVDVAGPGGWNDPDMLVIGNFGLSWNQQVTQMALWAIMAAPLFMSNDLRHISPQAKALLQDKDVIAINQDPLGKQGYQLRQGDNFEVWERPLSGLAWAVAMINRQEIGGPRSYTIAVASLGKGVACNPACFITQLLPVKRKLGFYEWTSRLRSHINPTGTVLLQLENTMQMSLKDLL

Alpha-Gal A = conditions: grown in the presence of DGJ, cited from earlier work
GLA = conditions: patient lymphoblasts; cited from earlier work
GLA[R301G] = target: T3, GLA[R301G] (Homo sapiens, UniProt P06280, R301G); format: cell-based
T3 sequence (P06280 32-429 R301G): T2 sequence (P06280 32-429 A156V) with V125A, R270G

mutant GLA [5] = conditions: washout two hours prior to assay; cited from earlier work
mutant GLA [6] = conditions: cell-free; cited from earlier work
[7] = target: acid α-glucosidase mutants (Homo sapiens, UniProt P10253, L552P); format: cell-based; conditions: 20 μM DNJ + 40 μM compound; FIG. 11B
Description: as §1, §2

[8] = system: acid α-glucosidase mutants; format: cell-based; conditions: 20 μM NB-DNJ alone; FIG. 7A
Description: as §1, §2

[9] = value with superscript 2 (mark not explained)
[10] = value with superscript 1 (mark not explained)

Chain of acid α-glucosidase mutants (Homo sapiens, UniProt P10253, Y455F) (P10253 70-952 Y455F): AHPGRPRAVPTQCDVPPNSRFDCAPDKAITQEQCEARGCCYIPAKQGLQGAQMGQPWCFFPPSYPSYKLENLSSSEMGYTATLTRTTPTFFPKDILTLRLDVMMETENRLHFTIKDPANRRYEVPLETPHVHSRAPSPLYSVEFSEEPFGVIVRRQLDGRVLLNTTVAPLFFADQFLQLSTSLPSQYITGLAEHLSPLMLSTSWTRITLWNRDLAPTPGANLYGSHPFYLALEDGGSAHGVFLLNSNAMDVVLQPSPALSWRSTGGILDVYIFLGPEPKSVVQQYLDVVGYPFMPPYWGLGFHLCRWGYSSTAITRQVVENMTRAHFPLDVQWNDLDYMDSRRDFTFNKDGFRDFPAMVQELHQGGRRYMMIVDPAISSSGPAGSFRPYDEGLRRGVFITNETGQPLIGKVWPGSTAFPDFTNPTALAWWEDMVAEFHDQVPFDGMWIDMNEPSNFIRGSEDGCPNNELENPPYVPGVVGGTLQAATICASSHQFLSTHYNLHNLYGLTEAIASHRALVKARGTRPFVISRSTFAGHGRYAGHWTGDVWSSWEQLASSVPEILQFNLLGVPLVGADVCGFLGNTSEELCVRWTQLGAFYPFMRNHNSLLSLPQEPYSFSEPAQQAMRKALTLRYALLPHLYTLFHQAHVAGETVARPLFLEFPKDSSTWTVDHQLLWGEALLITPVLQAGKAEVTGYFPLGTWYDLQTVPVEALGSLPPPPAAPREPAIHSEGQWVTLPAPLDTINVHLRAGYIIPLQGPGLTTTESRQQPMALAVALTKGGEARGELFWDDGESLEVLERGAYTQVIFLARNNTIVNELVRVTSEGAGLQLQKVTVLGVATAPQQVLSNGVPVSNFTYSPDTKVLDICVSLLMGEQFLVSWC
Chain of acid α-glucosidase mutants (Homo sapiens, UniProt P10253, L552P) (P10253 70-952 L552P): as the sequence (P10253 70-952 Y455F) above, with F386Y, L483P counted along it

CC(=O)NC1CNC(CO)[C@@H](O)C1O (stereo partly drawn) [2-Acetamido-1,2-dideoxynojirimycin]
Ki (hexosaminidase A; [9]): 700 nM

CC(=O)NC1C(O)NC(CO)[C@@H](O)C1O (stereo partly drawn) [2-Acetamido-2-deoxynojirimycin (ADNJ), 2-Acetamido-2-deoxynojirimycin]
Ki (hexosaminidase A; [9]): 5 nM

CC(=O)NC1CN2CC[C@H](O)C2[C@@H](O)C1O (stereo partly drawn) [6-Acetamido-6-deoxycastanospermine]
IC50 (hexosaminidase A; [10]): 500 nM

CN(Cc1cc(Br)cc(Br)c1N)C1CCCCC1 [Bromhexine, 2,4-dibromo-6-{[cyclohexyl(methyl)amino]methyl}aniline]
resulting concentration referring to blood volume after first pass loss [1]: approximately 0.7 μM | intestinal absorption ([2]; 32 mg tablet (77.6 μmol)): 22-27% | concentration of bromhexine ([2]; Bechgaard et al.): 80 nM | increase in the activity of acid α-glucosidase mutant Y455F, compound with DNJ compared to DNJ alone [3]: comparable | difference of protein activity between Bromhexine and DGJ and Ambroxol and DGJ ([4]; 40 μM Bromhexine or Ambroxol + 20 μM DGJ, FIG. 6): no significant difference | alpha-Galactosidase A activity of mutant GLAs, bromhexine alone ([4]; 40 μM Bromhexine without DGJ, FIG. 6): no effect | enzyme activity of GLA mutants, compound in combination with DGJ [4]: significantly increased | enzyme activity of GLA mutants, compound in combination with DGJ ([4]; listed as bromhexine): increased

OC[C@H]1NC[C@H](O)[C@@H](O)[C@H]1O [DGJ, 1-Deoxygalactonojirimycin]
increase of GLA[A156V] activity (GLA[A156V]; 20 μM DGJ alone, no Ambroxol, untreated = 1.0, FIG. 5A): 3.8 fold and 4 fold | concentration of DGJ reaching the same effect as 20 μM DGJ alone (GLA[A156V]; with 40 μM Ambroxol in addition, GLA[A156V]): 8.9 µM | Alpha-Gal A activity (Alpha-Gal A; other mutations): unaffected | Alpha-Gal A activity (Alpha-Gal A; several mutations): more than 50 % of normal | concentration beyond which GLA activity decreases (GLA): > 100 µM | increase of GLA[R301G] activity (GLA[R301G]; 20 μM DGJ without Ambroxol, untreated = 1.0, FIG. 5B): 2.8 fold | concentration of DGJ sufficient to reach the level of 20 μM DGJ alone (GLA[R301G]; in combination with 40 μM Ambroxol, mutant not named in the block): 4.72 µM | share of the DGJ concentration needed compared to DGJ alone (GLA[R301G]; in combination with 40 μM Ambroxol, same increase of protein activity): ~25% | clinically achievable concentration ([2]; clinical trials, Wu et al.): 10 µM | concentration tolerated without any detectable inhibition of the tested mutant enzyme (mutant GLA [5]): up to 1 mM | dosages already inhibiting (mutant GLA [6]): below 1 μM

CC(=O)N[C@H]1C(O)O[C@H](CO)[C@H](O)[C@@H]1O (stereo partly drawn) [N-Acetyl-galactosamine (GalNAc), N-Acetyl-galactosamine]
Ki (hexosaminidase A; [10]): 1.9 nM

CN(Cc1cc(C#N)cc(C#N)c1N)C1CCCCC1 [SF-54B]
mutant enzyme activity in combination with DGJ (GLA[A156V]; 20 μM DGJ, FIG. 9): high increase | mutant enzyme activity in combination with DGJ, concentration series (GLA[A156V]): high increase | increase in the activity of acid α-glucosidase mutant Y455F, compound with DNJ compared to DNJ alone [3]: comparable

CN(Cc1cc(C#N)cc(Br)c1N)C1CCCCC1 [SF-55C]
mutant enzyme activity in combination with DGJ (GLA[A156V]; 20 μM DGJ, FIG. 9): high increase | mutant enzyme activity in combination with DGJ, concentration series (GLA[A156V]): high increase | increase in the activity of acid α-glucosidase mutant Y455F, compound with DNJ compared to DNJ alone [3]: comparable

Cc1cc(C)cc(-c2cc(CN(C)C3CCCCC3)c(N)c(-c3cc(C)cc(C)c3)c2)c1 [SF-80]
concentration in combination with DGJ giving an increase as high as Ambroxol at up to 10 μM with DGJ (GLA[A156V]; 20 μM DGJ, FIG. 9): 1 µM

N#Cc1cc(C#N)c(N)c(CNC2CCC(O)CC2)c1 (stereo not drawn) [SF-124B]
increase in the activity of mutant L552P, compound with DNJ compared to DNJ only [7]: higher | increase in the activity of acid α-glucosidase mutant Y455F, compound with DNJ compared to DNJ alone [3]: comparable

CC(=O)Nc1c(Br)cc(Br)cc1CN(C)C1CCCCC1 [SF-150B]
mutant enzyme activity in combination with DGJ, concentration series (GLA[A156V]): high increase | increase in the activity of mutant L552P, compound with DNJ compared to DNJ only [7]: higher | increase in the activity of acid α-glucosidase mutant Y455F, compound with DNJ compared to DNJ alone [3]: higher

CC(=O)OC1CCC(NCc2cc(Br)cc(Br)c2N)CC1 (stereo not drawn) [SF-153B]
mutant enzyme activity in combination with DGJ, concentration series (GLA[A156V]): high increase | increase in the activity of mutant L552P, compound with DNJ compared to DNJ only [7]: higher | increase in the activity of acid α-glucosidase mutant Y455F, compound with DNJ compared to DNJ alone [3]: higher

N-butyl-DNJ [NB-DNJ]
enzyme activity of mutations Y455F, P545L and L552P, NB-DNJ [8]: significantly increased
